According to patent publication US7790947B2 (priority 2001, dated 2010):

How the values were obtained:
[1] = system: TSST-1 toxin production by S. aureus; conditions: cited from earlier work
TSS-1 production = test: Inhibition of TSS-1 production by salt or acid residue in absorbent foam; type: cell-based, S. aureus; conditions: residual salt or acid in dried foam, between 0.1% and 10% weight percent of foam
hemoglobin = hemoglobin (Homo sapiens, UniProt P68871); conditions: cited from earlier work
TSST-1 toxin = TSST-1 toxin (Staphylococcus aureus, UniProt P06886); conditions: mechanism unknown; cited from earlier work
TSST-1 toxin, sequence (P06886 41-234 limits assumed): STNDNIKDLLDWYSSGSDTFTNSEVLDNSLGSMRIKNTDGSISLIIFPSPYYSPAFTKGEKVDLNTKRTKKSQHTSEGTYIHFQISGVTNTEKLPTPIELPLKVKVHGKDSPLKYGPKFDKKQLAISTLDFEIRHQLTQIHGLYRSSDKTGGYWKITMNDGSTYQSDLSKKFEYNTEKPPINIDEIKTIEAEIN

hemoglobin, sequence (P68871 2-147 limits assumed): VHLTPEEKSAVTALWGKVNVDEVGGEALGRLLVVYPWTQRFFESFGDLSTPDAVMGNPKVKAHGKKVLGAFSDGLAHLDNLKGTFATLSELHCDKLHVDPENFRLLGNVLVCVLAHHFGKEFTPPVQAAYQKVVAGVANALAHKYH
hemoglobin, sequence (P69905 2-142 partner limits assumed): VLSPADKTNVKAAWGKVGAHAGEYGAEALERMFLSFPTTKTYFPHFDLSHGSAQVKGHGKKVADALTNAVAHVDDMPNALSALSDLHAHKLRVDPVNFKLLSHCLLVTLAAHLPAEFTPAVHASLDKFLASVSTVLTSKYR

| Compound | effect on toxin (TSST-1) production by S. aureus [1] | inhibition of TSS-1 production (TSS-1 production) | also measured |
| --- | --- | --- | --- |
| tocopherol | reduce toxin production and/or deactiviate the toxin TSST-1 |  |  |
| [Ca+2].[Cl-].[Cl-] [CaCl2] |  | inhibit TSS-1 production |  |
| O=C(O)C(COP(=O)(O)O)OP(=O)(O)O (stereo not drawn) [BPG, 2,3-bisphosphoglycerate] |  |  | lowering of the affinity of oxygen for hemoglobin (factor) (hemoglobin): 26 |
| [Cl-].[Cl-].[Mg+2] [MgCl2] |  | inhibit TSS-1 production |  |
| O=C1O[C@H]([C@@H](O)CO)C(O)=C1O [ascorbic acid] | reduce toxin production and/or deactiviate the toxin TSST-1 | inhibit TSS-1 production | deactivation of the toxin (TSST-1 toxin): deactivates the toxin |
| OCC(O)CO [glycerol] | reduce toxin production and/or deactiviate the toxin TSST-1 |  |  |
| O=C1O[C@H]([C@@H](O)CO)C([O-])=C1O.[Na+] [sodium ascorbate] |  | inhibit TSS-1 production |  |
